Square brackets hold non-standard residues; d marks the D form. Peptide text beside a SMILES is read from it. * marks the point of attachment. ξ: configuration not given here. Cbz = O=C(OCc1ccccc1)*; ξM = CSCCC(N)C(=O)O
Legend:
[1] = target: hDHODH (Homo sapiens, UniProt Q02127); experiment: colorimetric DCIP human DHODH enzyme inhibition assay; type: biochemical
[2] = target: PfDHODH (Plasmodium falciparum, UniProt Q08210); experiment: colorimetric DCIP PfDHODH enzyme inhibition assay; type: biochemical; conditions: for % PfDHODH Inhibition at 10 μM: 10 μM compound; for IC50: read-out: PfDHODH IC50
PfDHODH, sequence (Q08210 24-569): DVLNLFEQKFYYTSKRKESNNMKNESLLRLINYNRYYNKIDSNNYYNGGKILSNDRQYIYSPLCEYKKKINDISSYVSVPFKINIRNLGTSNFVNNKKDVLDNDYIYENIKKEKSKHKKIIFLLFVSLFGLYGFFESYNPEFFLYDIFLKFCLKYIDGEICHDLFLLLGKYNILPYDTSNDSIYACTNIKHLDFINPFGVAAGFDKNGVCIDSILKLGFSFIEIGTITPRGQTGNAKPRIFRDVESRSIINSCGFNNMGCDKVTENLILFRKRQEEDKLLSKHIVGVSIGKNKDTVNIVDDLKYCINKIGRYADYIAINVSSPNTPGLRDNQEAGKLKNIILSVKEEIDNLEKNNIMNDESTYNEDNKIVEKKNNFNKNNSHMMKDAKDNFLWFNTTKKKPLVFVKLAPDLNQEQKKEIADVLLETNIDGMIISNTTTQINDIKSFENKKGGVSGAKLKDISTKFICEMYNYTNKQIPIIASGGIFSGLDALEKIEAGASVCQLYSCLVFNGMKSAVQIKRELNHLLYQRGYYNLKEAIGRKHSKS

[3] = system: P. falciparum NF54 strain (PfNF54); experiment: in vitro antiplasmodial assay, [3H] hypoxanthine incorporation assay; type: cell-based; conditions: Plasmodium falciparum, NF54, read-out: PfNF54 IC50
[4] = system: P. falciparum NF54 strain (PfNF54); experiment: in vitro antiplasmodial assay, parasite lactate dehydrogenase assay; type: cell-based; conditions: Plasmodium falciparum, NF54, read-out: PfNF54 IC50

hDHODH, sequence (Q02127 whole entry): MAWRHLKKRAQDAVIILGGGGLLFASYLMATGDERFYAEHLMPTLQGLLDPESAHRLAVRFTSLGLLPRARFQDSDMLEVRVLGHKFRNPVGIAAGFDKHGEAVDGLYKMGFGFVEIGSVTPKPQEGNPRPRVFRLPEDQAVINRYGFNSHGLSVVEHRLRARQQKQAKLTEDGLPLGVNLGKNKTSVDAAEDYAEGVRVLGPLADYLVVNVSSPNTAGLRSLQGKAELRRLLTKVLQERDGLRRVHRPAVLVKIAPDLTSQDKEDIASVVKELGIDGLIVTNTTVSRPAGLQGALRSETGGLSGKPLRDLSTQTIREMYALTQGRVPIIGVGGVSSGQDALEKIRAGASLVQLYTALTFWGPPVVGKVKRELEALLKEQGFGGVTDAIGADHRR

Row | Compound | % PfDHODH Inhibition at 10 μM [2] [%] | IC50 [2] [nM] | also measured
1 | CCOC(=O)C(=CNc1cccc(N(C)C)c1)C(=O)OCC [NSC336047] | 93 | 380 | species-selectivity for PfDHODH over hDHODH ([1]; from PfDHODH and hDHODH IC50): highly species selective; IC50 ([1]; read-out: hDHODH IC50): > 100000 nM
2 | CSCCC(NC(=O)COc1ccc(Cl)cc1Cl)C(=O)O (stereo not shown) [NSC87887] | 28 | – | –
3 | O=NN(CCCl)C(=O)Nc1ccc2[nH]c3ccccc3c2c1 [NSC 116824] | 3 | – | –
4 | CCN(CC)CCCC(C)Nc1ccnc2cc(Cl)ccc12 (stereo not shown) [Chloroquine] | – | – | IC50 [3]: 12 nM; IC50 [4]: 13 nM
5 | CCOC(=O)CSC(=S)Nc1ccc(Cl)cc1 [NSC85749] | 46 | > 100000 | PfDHODH inhibition, result in words [2]: moderately active at concentrations above 30 μM
6 | CCOC(=O)c1cnc(SC)nc1Nc1ccc(Cl)cc1 [NSC165287] | 11 | – | –
7 | CCOC(=O)/C(C#N)=C/NCCc1c[nH]c2ccccc12 [NSC343533] | 50 | 20000 | –
8 | CCOC(=O)C(=CNc1cccc2c(O)cccc12)C(=O)OCC [NSC340225] | 3 | – | –
9 | COC(=O)C(CC(=O)c1ccc2ccccc2c1)OC (stereo not shown) [NSC72405] | 30 | > 100000 | –
10 | C[C@H]1[C@H](OC(=O)CCC(=O)O)O[C@@H]2O[C@@]3(C)CC[C@H]4[C@H](C)CC[C@@H]1[C@@]24OO3 [Artesunate] | – | – | IC50 [3]: 9 nM; IC50 [4]: 10 nM
11 | CCOC(=O)C(=CNc1cc(Cl)ccc1Cl)C(=O)OCC [NSC137121] | 0 | – | –
12 | C=CCN(CC(O)CO)c1ccccc1 (stereo not shown) [NSC58504] | 26 | – | –
13 | CCOC(=O)C(=CNc1ccc2c(c1)OCO2)C(=O)OCC [NSC332161] | – | 5100 | % PfDHODH Inhibition at 10 μM ([2]; 10 µM): 63%
14 | CSCCC(NC(=O)OCc1ccccc1)C(=O)NCC(=O)O (stereo not shown) [NSC89636] (Cbz-[ξM]-Gly-OH) | 26 | – | –
15 | CCOC(=O)C(Cc1c[nH]c2ccc([N+](=O)[O-])cc12)C(=O)OCC [NSC85231] | 28 | – | –
